Experimental data published in the Kinase Knowledgebase extract (Sharma et al. 2016).
pIC50: −log10 of the molar value.

Columns and labels:
[1] = target: EGFR (human) (UniProt P00533); settings: mda-mb-231
[2] = target: EGFR (human) (UniProt P00533); settings: mda-mb-231; remark: listed apart in the source
[3] = target: EGFR (human) (UniProt P00533); settings: mda-mb-361
[4] = target: EGFR (human) (UniProt P00533); settings: mda-mb-231; remark: listed apart in the source

Sequence of EGFR (human) (P00533 whole entry, looked up): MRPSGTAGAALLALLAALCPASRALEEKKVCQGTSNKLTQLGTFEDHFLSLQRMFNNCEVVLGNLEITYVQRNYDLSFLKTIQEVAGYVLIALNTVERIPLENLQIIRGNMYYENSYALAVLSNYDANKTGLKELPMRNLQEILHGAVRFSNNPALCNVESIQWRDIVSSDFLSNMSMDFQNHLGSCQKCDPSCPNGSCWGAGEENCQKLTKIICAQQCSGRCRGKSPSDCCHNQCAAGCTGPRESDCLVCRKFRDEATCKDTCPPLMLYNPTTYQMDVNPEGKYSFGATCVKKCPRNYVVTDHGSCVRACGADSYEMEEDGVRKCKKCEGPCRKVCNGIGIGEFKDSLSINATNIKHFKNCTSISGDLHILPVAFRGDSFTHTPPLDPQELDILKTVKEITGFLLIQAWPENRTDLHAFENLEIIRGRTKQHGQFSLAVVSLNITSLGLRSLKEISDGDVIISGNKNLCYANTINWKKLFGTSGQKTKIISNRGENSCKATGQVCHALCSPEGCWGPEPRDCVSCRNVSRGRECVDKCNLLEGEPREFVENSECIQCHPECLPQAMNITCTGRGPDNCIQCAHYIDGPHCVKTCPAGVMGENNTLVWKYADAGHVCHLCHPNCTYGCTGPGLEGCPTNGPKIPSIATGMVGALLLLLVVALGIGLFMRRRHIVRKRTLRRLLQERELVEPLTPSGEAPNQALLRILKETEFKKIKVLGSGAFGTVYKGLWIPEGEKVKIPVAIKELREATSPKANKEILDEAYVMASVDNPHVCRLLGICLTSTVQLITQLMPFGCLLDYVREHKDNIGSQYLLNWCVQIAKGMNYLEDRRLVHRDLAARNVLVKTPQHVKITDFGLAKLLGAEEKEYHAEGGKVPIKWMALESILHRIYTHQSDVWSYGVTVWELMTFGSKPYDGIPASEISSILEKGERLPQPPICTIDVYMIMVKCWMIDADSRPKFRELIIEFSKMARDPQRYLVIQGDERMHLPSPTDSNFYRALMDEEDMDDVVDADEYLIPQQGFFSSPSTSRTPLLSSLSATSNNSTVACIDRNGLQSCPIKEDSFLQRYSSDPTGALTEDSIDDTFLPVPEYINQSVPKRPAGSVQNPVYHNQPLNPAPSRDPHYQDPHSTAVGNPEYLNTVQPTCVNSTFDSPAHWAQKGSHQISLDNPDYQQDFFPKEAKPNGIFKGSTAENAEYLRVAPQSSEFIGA

Row | Compound | pIC50 [1] | pIC50 [2] | pIC50 [3] | pIC50 [4]
1 | C/C(O)=C(\C#N)C(=O)Nc1ccccc1C(F)(F)F | < 4.00 | < 3.52 | < 3.52 | –
2 | C/C(O)=C(\C#N)C(=O)Nc1ccc(Br)cc1 | < 4.00 | < 3.52 | < 3.52 | –
3 | C/C(O)=C(\C#N)C(=O)Nc1ccccc1Br | < 4.00 | < 3.52 | < 3.52 | –
4 | C/C(O)=C(\C#N)C(=O)Nc1ccc(OC(F)(F)F)cc1 | – | 4.27 | 4.58 | 4.55
5 | C/C(O)=C(\C#N)C(=O)Nc1ccccc1F | 4.13 | < 3.52 | < 3.52 | –
6 | C/C(O)=C(\C#N)C(=O)Nc1ccc(C(F)(F)F)cc1 | 5.27 | 3.70 | 3.72 | 4.01
7 | C/C(O)=C(\C#N)C(=O)Nc1cc(Br)ccc1Br | < 4.00 | < 3.52 | < 3.52 | –

More lines, now with the values ahead:

Row | pIC50 [1] | pIC50 [2] | pIC50 [3] | pIC50 [4] | Compound
8 | < 4.00 | < 3.52 | < 3.52 | – | C/C(O)=C(\C#N)C(=O)Nc1cccc(Br)c1
9 | < 4.00 | < 3.52 | < 3.52 | – | C/C(O)=C(\C#N)C(=O)Nc1cccc(Cl)c1
10 | < 4.00 | < 3.52 | < 3.52 | – | C/C(O)=C(\C#N)C(=O)Nc1ccc(F)cc1
11 | < 4.00 | < 3.52 | < 3.52 | – | C/C(O)=C(\C#N)C(=O)Nc1ccccc1
12 | < 4.00 | < 3.52 | < 3.52 | – | C/C(O)=C(\C#N)C(=O)Nc1cccc(C(F)(F)F)c1
13 | < 4.00 | < 3.52 | < 3.52 | – | C/C(O)=C(\C#N)C(=O)Nc1ccc(Cl)cc1
14 | < 4.00 | < 3.52 | < 3.52 | – | C/C(O)=C(\C#N)C(=O)Nc1cccc(F)c1
15 | < 4.00 | < 3.52 | < 3.52 | – | C/C(O)=C(\C#N)C(=O)Nc1ccccc1Cl
